Experimental data as given in US20240208961A1, “EIF4E INHIBITORS AND USES THEREOF” (PIC Therapeutics, Inc., priority 2022, published 2024).
“And” between values parts separate entries of the source, which are not always exact repeats. Identical values can stand only once. Like-named read-outs stand apart in the source and are kept apart here.

Test: Pharmacokinetic studies of certain compounds in female Balb/c mice (Example 5)
Format: in vivo
Settings: I-1 PO 30 mg/kg
Procedure: Pharmacokinetic studies were performed using Balb/c mice, 15-20 g, 6-9 weeks, female, N=9, purchased from Jihui Laboratory Animal Co. LTD. For compound I-29, Balb/c mice, 19-21 g, 9-11 weeks, female, N=9, were used. The mice were fasted overnight and fed at 4 h post dosing.
Animals were dosed via oral gavage (PO) or tail vein injection (IV) with compound. Sampling occurred at 0.083, 0.25, 0.5, 1, 2, 4, 8, and 24 h post dose (8 time points). The animals were restrained manually at the designated time points. Approx. […] of blood was taken from the animals via facial vein for semi-serial bleeding into tubes with K2EDTA. Blood samples were put on ice and centrifuged at 4° C. (2000 g, 5 min) to obtain plasma within 15 min after sample collection. Plasma samples were stored in dry ice temporarily and at approximately −70° C. until analysis.
For oral gavage, the compound was dosed as a suspension in 1% sodium carboxymethyl cellulose (CMC) and 0.2% Tween 80 in water. For 23.8 mg/kg and 30 mg/kg doses, 3 mg/mL was used; for 50 mg/kg doses, 5 mg/mL was used; and for 100 mg/kg doses, 10 mg/mL was used.
For IV administration, the compound was dosed as a solution in 5% DMSO, 5% Solutol HS15 and 90% saline. For 1 mg/kg and 1.48 mg/kg doses, 0.2 mg/mL was used.
Plasma samples were analyzed using LC-MS using a calibration curve of known concentrations.
The results of these studies are summarized in Tables 11-21 below and in FIGS. 2-8. […] BQL=below quantifiable limit for compound in female Balb/c mouse plasma samples. NA=not available. PK parameters were estimated by non-compartmental model using WinNonlin 8.2. If the adjusted rsq (linear regression coefficient of the concentration value on the terminal phase) was less than 0.9, T1/2 might not have been accurately estimated. F value was determined by the following equation: • If AUClast/AUCINF>80%:
F=(AUCINF-EX×DOSEIV)/(AUCINF-IV×DOSEEX)[…] • If AUClast/AUCINF<80% or AUCINF not available:
F=(AUClast-EX×DOSEIV)/(AUClast-IV×DOSEEX)*1000

[1] = 24 hr, BQL = below quantifiable limit of 1 ng/mL

CC(C)Cc1sc(Nc2ncc(-c3cccs3)cc2C(=O)O)nc1C1=CCOCC1 [Compound I-1]
Plasma concentration Individual (0.083 hr, 30 mg/kg): 96.9 ng/mL and 51.8 ng/mL and 106 ng/mL | Plasma concentration Individual (0.25 hr, 30 mg/kg): 467 ng/mL and 432 ng/mL | Plasma concentration Individual (0.5 hr, 30 mg/kg): 464 ng/mL and 421 ng/mL | Plasma concentration Individual (1 hr, 30 mg/kg): 592 ng/mL and 498 ng/mL | Plasma concentration Individual (2 hr, 30 mg/kg): 367 ng/mL and 222 ng/mL | Plasma concentration Individual (4 hr, 30 mg/kg): 130 ng/mL and 153 ng/mL | Plasma concentration Individual (8 hr, 30 mg/kg): 78.9 ng/mL and 6.72 ng/mL and 12.2 ng/mL | Plasma concentration Individual [1]: BQL | Plasma concentration Mean [1]: BQL | concentration at 0.083 hr (female, Balb/c, mouse, plasma, po, 30 mg/kg, 0.083 hr, read-out: Plasma concentration Mean): 84.9 ng/mL | concentration at 0.25 hr (female, Balb/c, mouse, plasma, po, 30 mg/kg, 0.25 hr, read-out: Plasma concentration Individual): 383 ng/mL | concentration at 0.25 hr (female, Balb/c, mouse, plasma, po, 30 mg/kg, 0.25 hr, read-out: Plasma concentration Mean): 427 ng/mL | concentration at 0.5 h (female, Balb/c, mouse, plasma, po, 30 mg/kg, 0.5 hr, read-out: Plasma concentration Individual): 397 ng/mL | concentration at 0.5 h (female, Balb/c, mouse, plasma, po, 30 mg/kg, 0.5 hr, read-out: Plasma concentration Mean): 427 ng/mL | concentration at 1 h (female, Balb/c, mouse, plasma, po, 30 mg/kg, 1 hr, read-out: Plasma concentration Individual): 320 ng/mL | concentration at 1 hr (female, Balb/c, mouse, plasma, po, 30 mg/kg, 1 hr, read-out: Plasma concentration Mean): 470 ng/mL | concentration at 2 hr (female, Balb/c, mouse, plasma, po, 30 mg/kg, 2 hr, read-out: Plasma concentration Individual): 376 ng/mL | concentration at 2 hr (female, Balb/c, mouse, plasma, po, 30 mg/kg, 2 hr, read-out: Plasma concentration Mean): 322 ng/mL | concentration at 4 hr (female, Balb/c, mouse, plasma, po, 30 mg/kg, 4 hr, read-out: Plasma concentration Individual): 193 ng/mL | concentration at 4 hr (female, Balb/c, mouse, plasma, po, 30 mg/kg, 4 hr, read-out: Plasma concentration Mean): 159 ng/mL | concentration at 8 hr (female, Balb/c, mouse, plasma, po, 30 mg/kg, 8 hr, read-out: Plasma concentration Mean): 32.6 ng/mL | AUC(0-inf) (mouse, plasma): 1720 ng·h/mL | AUC(0-t) (mouse, plasma): 1640 ng·h/mL | Cmax (mouse, plasma): 470 ng/mL | MRT inf (mouse, plasma): 2.76 h | MRT last (mouse, plasma): 2.35 h | Tmax (mouse, plasma): 1 h | half-life (mouse, plasma): 1.81 h
